This is an account of results in patent US20260209242A1, “CAMPTOTHECIN DERIVATIVE, PHARMACEUTICAL COMPOSITION, AND PREPARATION METHOD AND USE THEREFOR” (priority 2022, published 2026).

The target in one data set is T1, CYP3A4 (Homo sapiens, UniProt P08684).
T1 construct: from tissue; host or cells: human liver microsomes
Nature of the data set: Inhibition on human hepatomicrosomes CYP3A4. It counts as in vitro ADME.

For another data set, the target named is T2, CYP1A2 (Homo sapiens, UniProt P05177).
T2 sequence (P05177 1-516): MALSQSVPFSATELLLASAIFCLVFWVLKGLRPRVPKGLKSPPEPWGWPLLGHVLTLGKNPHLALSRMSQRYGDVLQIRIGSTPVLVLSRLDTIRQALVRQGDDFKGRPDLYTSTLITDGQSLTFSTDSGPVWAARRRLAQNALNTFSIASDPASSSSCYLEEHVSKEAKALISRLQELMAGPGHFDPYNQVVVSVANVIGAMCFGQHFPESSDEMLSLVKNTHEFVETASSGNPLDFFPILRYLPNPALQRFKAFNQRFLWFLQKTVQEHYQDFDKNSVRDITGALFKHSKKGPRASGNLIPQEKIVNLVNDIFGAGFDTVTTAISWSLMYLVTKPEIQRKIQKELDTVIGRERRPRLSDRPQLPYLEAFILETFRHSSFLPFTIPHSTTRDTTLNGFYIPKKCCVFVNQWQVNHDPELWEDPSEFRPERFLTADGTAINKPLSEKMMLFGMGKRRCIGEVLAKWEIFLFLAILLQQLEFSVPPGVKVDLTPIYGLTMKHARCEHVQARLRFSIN
The data set can be described thus: Inhibition on human hepatomicrosomes CYP1A2.

The nature of data set [1]: Kinetic solubility test in PBS 7.4. In kind it is physicochemical. The following applies: for solubility at 2 h: 25 °C, pH 7.4, aqueous buffer, kinetic from dmso stock. The procedure:
10 mM stock solutions of the test substances 6-2, 11-2, 17-2, Dxd, and the control drugs progesterone and diclofenac were prepared using DMSO respectively.
15 μL of 10 mM stock solution of each of the test substances was added to a corresponding position of a corresponding 96-well plate in a specified sequence. 485 μL of the PBS 7.4 was added to a corresponding vial on a sample plate. The experiment was run in duplicate. Each vial was additionally provided with a stirring rod and was plugged. Then, the sample plate was transferred in a thermostatic mixer, and oscillated at a revolving speed of 1,100 rpm at 25° C. for 2 h. 2 h later, the plug was removed, the stirring rod was attracted away with a large magnet, and then the sample was transferred from the sample plate to the filter plate. Negative pressure was generated using a vacuum pump to filter the sample. 5 μL of filtrate and 5 μL of blank DMSO were transferred to another sample plate, and then 490 μL of internal standard water (acetonitrile:water=1:1) containing the internal standard was added. Depending on peak shapes, a certain proportion of internal standard water may be used to dilute the sample diluent to obtain better peak shapes.
6 μL was transferred from the 10 mM DMSO stock solution plate to a blank plate, and was prepared into a 300 μM standard substance solution with addition of 194 μL of DMSO. 5 μL was transferred from the 300 μM standard substance solution plate to still another blank plate, and then 5 μL of blank buffer and 490 μL of the internal standard water containing the internal standard (acetonitrile:water=1:1) were added until a final concentration of the standard substance solution was 3 μM.
An injection plate was transferred on an injection tray of an autosampler to evaluate the sample by LC/MS analysis.
All calculations were performed using Microsoft Excel.
The sample filtrate was analyzed and quantified by qualitative and quantitative LC/MS of standard substance peaks at known concentrations. The calculation formula for the solubility values of the reference drugs and the test substances are as follows:
[Sample] is the compound concentration, DFSample refers to the sample dilution factor, [STD] is the standard substance concentration of the compound, AREAStd is the standard substance peak area of the compound, and AREASample is the peak area of the compound sample.

A short description of data set [2]: Stability of compounds in human plasma. It counts as in vitro ADME. To be noted: for Residual percentage (%) 1 h / Residual percentage (%) 2 h / Residual percentage (%) 6 h / Residual percentage (%) 24 h: 5 μmol/L. The procedure:
• (1) 199 μL of human plasma was added to the culture plate of each cell. The culture plate was preheated to 37° C., and kept at this temperature for 15 min. • (2) After preincubation, 1 μL of 1 mmol/L each test compound and 1 μL of 1 mmol/L control compound were added to 199 μL of plasma, so that a final concentration of each test compound was 5 μmol/L and that of the control compound was 5 gmol/L. The final concentration of the organic solvent was 0.5%. The experiment would be duplicated twice. • (3) Reaction samples were incubated at 37° C. • (4) The reaction was stopped by adding 600 μL of cold methanol containing the internal standard at 0, 1, 2, 6, and 24 h. Each sample was vortex mixed for 10 min, and then centrifuged at 3,220 g for 30 min to precipitate the protein. […] Based on the signal response and peak shapes of liquid chromatography-mass spectrometry (LC-MS), the supernatant would be diluted with ultrapure water.
All calculations were performed using Microsoft Excel. The peak area ratio was determined from the chromatogram of extracted ions. The percentage of compounds remaining at each time point was calculated as per the following formula: […]

Data set [3] is described as follows: Pharmacokinetic test in SD rats. To be noted: male, Sprague-Dawley (SD), rat, in vivo, iv, 2 mg/kg. How it is done: After a single intravenous injection (dose: 2 mpk) of the compounds 6-2, 11-2, 17-2, and Dxd into male SD rats (blood collection time points: 0.083 h, 0.25 h, 0.5 h, 1 h, 2 h, 4 h, 8 h, and 24 h after IV administration, totaling 8 blood collection time points), average pharmacokinetic parameters in the plasma are as shown in Table 5: […]

The nature of data set [4]: Stability of compounds in human plasma. It counts as in vitro ADME. To be noted: 5 μmol/L.
A further data set has as its target CYP2D6 (Homo sapiens, UniProt P10635). The data set can be described thus: Inhibition on human hepatomicrosomes CYP2D6.
Where [5] appears, read: read-out: 3A4M (IC50 μM), human hepatomicrosomes, substrate midazolam.

Values after ≈ are worked out from the molar mass of the structure shown. Read-outs that look alike come from different tables or passages of the source. Some results are limits rather than exact numbers.

T1 sequence (P08684 whole entry): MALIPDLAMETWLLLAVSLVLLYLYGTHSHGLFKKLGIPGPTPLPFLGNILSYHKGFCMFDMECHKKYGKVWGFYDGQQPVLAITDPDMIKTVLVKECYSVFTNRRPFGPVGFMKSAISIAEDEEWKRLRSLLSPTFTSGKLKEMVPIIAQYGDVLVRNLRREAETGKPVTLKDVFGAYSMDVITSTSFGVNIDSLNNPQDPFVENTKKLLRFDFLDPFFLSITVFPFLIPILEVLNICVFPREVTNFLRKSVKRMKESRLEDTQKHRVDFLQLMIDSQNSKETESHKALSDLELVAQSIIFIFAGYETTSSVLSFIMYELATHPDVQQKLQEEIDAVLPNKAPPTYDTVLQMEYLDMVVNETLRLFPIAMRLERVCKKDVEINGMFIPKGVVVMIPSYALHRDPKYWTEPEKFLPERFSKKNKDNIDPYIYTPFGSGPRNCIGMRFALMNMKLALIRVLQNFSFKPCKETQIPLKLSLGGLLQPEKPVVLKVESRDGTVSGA
Chain of CYP2D6 (P10635 whole entry): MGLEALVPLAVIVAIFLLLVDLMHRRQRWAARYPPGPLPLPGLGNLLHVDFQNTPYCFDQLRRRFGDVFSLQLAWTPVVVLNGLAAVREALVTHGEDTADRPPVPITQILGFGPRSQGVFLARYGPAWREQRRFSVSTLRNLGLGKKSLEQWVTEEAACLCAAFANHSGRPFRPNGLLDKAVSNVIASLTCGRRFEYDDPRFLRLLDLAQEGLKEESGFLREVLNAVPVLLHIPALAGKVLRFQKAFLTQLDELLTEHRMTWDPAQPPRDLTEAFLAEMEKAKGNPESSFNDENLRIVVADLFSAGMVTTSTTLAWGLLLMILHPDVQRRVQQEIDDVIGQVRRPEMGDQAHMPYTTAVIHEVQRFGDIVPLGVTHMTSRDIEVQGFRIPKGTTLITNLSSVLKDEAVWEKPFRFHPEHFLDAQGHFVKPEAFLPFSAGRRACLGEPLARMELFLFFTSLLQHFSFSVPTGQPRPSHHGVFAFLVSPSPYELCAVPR

One may read the IC50 as the concentration needed to halve the response being measured. Usually solubility stands for how much of the substance goes into solution per volume. For orientation: AUC(0-inf) means total exposure, with the tail of the curve extrapolated. As usually defined, the AUC(0-t) is exposure summed from dosing to a finite time, without extrapolation to infinity. A lower AUC(0-t) goes with low exposure. Broadly, the Vd is the apparent volume that relates the amount in the body to the concentration in plasma or blood. Read a low Vd as confinement near the circulation. One may read the clearance as the volume of plasma or blood freed of the substance per unit of time. By half-life is commonly meant the time in which the quantity being followed falls by half. For `CC[C@@]1(O)C(=O)OCc2c1cc1n(c2=O)Cc2c-1nc1cc(F)c(C)c3c1c2C(NC(=O)C[C@@H](C)O)CCC3` (single isomer, unassigned) [Compound 6-2], the IC50 against CYP3A4 was more than 30 µM. For the same molecule, the IC50 on CYP3A4 (setting [5]) was more than 30 µM. Besides, the IC50 against CYP1A2 is more than 30 µM. Further, in data set [1], the “solubility in the PBS 7.4 compared with Dxd (in words)” value is “significantly better solubility in the PBS 7.4 than Dxd” and the solubility at 2 h was found to be 170 µM (≈ 91 µg/mL). For the same molecule, in data set [2], the “Residual percentage (%) 1 h” value worked out at 96.62%, the “Residual percentage (%) 2 h” value is listed as 86.16%, the “Residual percentage (%) 6 h” value amounted to 88.99% and the “Residual percentage (%) 24 h” value amounted to 87.01%. For the same molecule, the “stability in human plasma (in words)” value in data set [2] is on record as “good stability in human plasma”. In data set [3], this molecule registered a total exposure AUC(0-inf) of 318 ng·h/mL, an AUC(0-t) of 314 ng·h/mL, a C0 of 677 ng/mL and a Vd of 2.93 L/kg. In data set [3], this molecule gave a clearance of 108 mL/min/kg and a half-life of 0.39 h. Also, the “Residual percentage (%) 4 h” value in data set [4] came to 93.65%. The molecule further came in with an IC50 against CYP2D6 of more than 30 µM.

`CC[C@@]1(O)C(=O)OCc2c1cc1n(c2=O)Cc2c-1nc1cc(F)c(C3CC3)c3c1c2C(NC(=O)C[C@@H](C)O)CC3` (single isomer, unassigned) [Compound 17-2] returned an IC50 against CYP3A4 of more than 30 µM. Further, the 50% inhibitory concentration (IC50) on CYP3A4 (setting [5]) is more than 30 µM. At CYP1A2, this molecule showed an IC50 of more than 30 µM. This molecule also gave a solubility at 2 h in data set [1] of 1.7 µM (≈ 0.931 µg/mL). Further, in data set [2], the “Residual percentage (%) 1 h” value came out at 90.07%, the “Residual percentage (%) 2 h” value is reported as 89.34%, the “Residual percentage (%) 6 h” value was 97.06% and the “Residual percentage (%) 24 h” value stood at 102.21%. Also, the “stability in human plasma (in words)” value in data set [2] was “good stability in human plasma”. Also, in data set [3], the AUC(0-inf) is 2730 ng·h/mL, the AUC(0-t) turned out to be 2250 ng·h/mL, the C0 was 2690 ng/mL and the Vd was determined as 1.4 L/kg. In data set [3], this molecule showed a clearance of 12.3 mL/min/kg and a half-life of 1.64 h. For the same molecule, the “Residual percentage (%) 4 h” value in data set [4] is reported as 93.75%. At CYP2D6, the IC50 was more than 30 µM.
